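The compound was tested at five concentrations on cells cultured in 96-well plates, with a 48-hour exposure period. GI50: concentration for 50% inhibition of growth. At the TGI there is no net growth.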
Tests used:
Assay in all cases: NCI tumour cell line growth inhibition, 48 h
[1] = tested on: NCI-H23 lung
[2] = tested on: NCI-H460 lung
[3] = tested on: NCI-H522 lung
[4] = tested on: NCI/ADR-RES ovarian
[5] = tested on: OVCAR-3 ovarian
[6] = tested on: OVCAR-4 ovarian
[7] = tested on: OVCAR-5 ovarian
[8] = tested on: OVCAR-8 ovarian
[9] = tested on: PC-3 prostate
[10] = tested on: RPMI-8226 leukemia
[11] = tested on: RXF 393 renal
[12] = tested on: SF-268 CNS
[13] = tested on: SF-295 CNS
[14] = tested on: SF-539 CNS
[15] = tested on: SK-MEL-2 melanoma
[16] = tested on: SK-MEL-28 melanoma
[17] = tested on: SK-MEL-5 melanoma
[18] = tested on: SK-OV-3 ovarian
[19] = tested on: SN12C renal
[20] = tested on: SNB-19 CNS
[21] = tested on: SNB-75 CNS
[22] = tested on: SR leukemia
[23] = tested on: SW-620 colon
[24] = tested on: T-47D breast
[25] = tested on: TK-10 renal
[26] = tested on: U251 CNS
[27] = tested on: UACC-257 melanoma
[28] = tested on: UACC-62 melanoma
[29] = tested on: UO-31 renal

O=C(Nc1cccc(-n2ccc3c(NC(=O)c4ccccc4)nccc32)c1)Nc1ccc(Cl)c(C(F)(F)F)c1 gave a GI50 [1] of 593 nM, a TGI [1] of 5210 nM and a GI50 [2] of 337 nM. For the same compound, the TGI [2] was 18300 nM, the GI50 [3] was 211 nM and the TGI [3] was 642 nM. For the same compound, the GI50 [4] was 252 nM, the TGI [4] was 667 nM and the GI50 [5] was 240 nM. The TGI [5] was 554 nM, the GI50 [6] was 971 nM and the TGI [6] was over 100000 nM. It also gave a GI50 [7] of 482 nM, a TGI [7] of over 100000 nM and a GI50 [8] of 431 nM. It also gave a TGI [8] of over 39600 nM, a GI50 [9] of 432 nM and a TGI [9] of over 36100 nM. It also gave a GI50 [10] of 424 nM, a TGI [10] of 7020 nM and a GI50 [11] of 224 nM. The TGI [11] was 693 nM, the GI50 [12] was 696 nM and the TGI [12] was over 40000 nM. It also gave a GI50 [13] of 294 nM, a TGI [13] of 1340 nM and a GI50 [14] of 308 nM. It also gave a TGI [14] of 3980 nM, a GI50 [15] of 358 nM and a TGI [15] of 2620 nM. The GI50 [16] was 651 nM, the TGI [16] was over 92000 nM and the GI50 [17] was 317 nM. It also gave a TGI [17] of 1480 nM, a GI50 [18] of 346 nM and a TGI [18] of 20600 nM. For the same compound, the GI50 [19] was 820 nM, the TGI [19] was over 100000 nM and the GI50 [20] was 494 nM. The TGI [20] was over 100000 nM, the GI50 [21] was 240 nM and the TGI [21] was 769 nM. For the same compound, the GI50 [22] was 367 nM, the TGI [22] was over 23300 nM and the GI50 [23] was 395 nM. For the same compound, the TGI [23] was over 100000 nM, the GI50 [24] was 2880 nM and the TGI [24] was over 100000 nM. The GI50 [25] was 1190 nM, the TGI [25] was 14600 nM and the GI50 [26] was 495 nM. The TGI [26] was 17700 nM, the GI50 [27] was 1870 nM and the TGI [27] was 20900 nM. For the same compound, the GI50 [28] was 490 nM, the TGI [28] was 20000 nM and the GI50 [29] was 1350 nM. It also gave a TGI [29] of over 100000 nM.
